Tests used:
TAAR5 [1] = biological target: T1, TAAR5 (Homo sapiens, UniProt O14804); experiment: Dose responses on TAAR5 in luciferase assay (antagonist dose-dependent inhibition with TMA at EC80; TMA dose response with antagonist at IC10, IC30, IC50); format: cell-based; design: TAAR open reading frames were amplified from pooled human genomic DNA using Phusion polymerase and subcloned into a pCI expression vector; Rho tag (first 20 residues of human rhodopsin); expressed in transfected cells; host or cells: Hana3A cells; conditions: TAAR5 luciferase
T1 sequence (O14804 1-337): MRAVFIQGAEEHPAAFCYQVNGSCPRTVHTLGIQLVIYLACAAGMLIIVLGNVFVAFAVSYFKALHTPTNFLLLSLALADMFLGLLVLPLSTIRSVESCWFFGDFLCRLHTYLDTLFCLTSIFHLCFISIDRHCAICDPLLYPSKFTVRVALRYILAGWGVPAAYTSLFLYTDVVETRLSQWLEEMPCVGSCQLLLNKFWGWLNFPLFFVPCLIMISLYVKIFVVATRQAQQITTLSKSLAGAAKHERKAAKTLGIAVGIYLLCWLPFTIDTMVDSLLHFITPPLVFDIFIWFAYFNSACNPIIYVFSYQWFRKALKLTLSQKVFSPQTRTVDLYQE
Text: (§1) We screened a TAAR of interest, TAAR5, with the agonist TMA added at the EC80 concentration, against a proprietary small-molecule library to identify antagonists. TAAR open reading frames were amplified from pooled human genomic DNA using Phusion polymerase and subcloned into a pCI expression vector (Promega) containing the first 20 residues of human rhodopsin (Rho tag). The sequences of the cloned receptors were verified by sequencing (3730xl Sequencer, ABI Biosystems). We used the Dual-Glo™ Luciferase Assay System (Promega) to measure receptor responses as previously described in Trimmer, C. et al 2014 High-throughput Analysis of Mammalian Olfactory Receptors: Measurement of Receptor Activation via Luciferase Activity. Journal of Visualized Experiments, (88). doi:10.3791/51640. Hana3A cells were transfected with 5 ng/well of RTP1S, 5 ng/well of pRL-SV40, 10 ng/well of CRE-luciferase, 2.5 ng/well of M3, and 5 ng/well of odorant receptor. 1M odorant stocks were diluted in DMSO. 24 hours following transfection, transfection media was removed and replaced with the appropriate concentration of odor diluted from the 1M stocks in CD293 (Gibco). Four hours following odor stimulation luminescence was measured using a Synergy 2 plate reader (Biotek). All luminescence values were divided by the Renilla Luciferase activity to control for transfection efficiency in a given well.
In a secondary experiment, we ran dose dependent inhibition responses for the top twelve antagonists, i.e., the top 12 compounds identified in FIG. 4. TMA was kept at the EC80 (500 μM) and the twelve antagonists were diluted in a dose response with the highest concentration at 1000 μM. The top five candidate compounds, i.e., phenethyl benzoate, trans-2-nonen-1-ol, isoeugenyl phenlacetate, tributyl-2-acetylcitrate, bis(2-methyl-3-furyl)disulfide, were rescreened using an antagonist dose response at 2500 μM. We determined the IC80 values for those five antagonists. Using those IC80 values, we completed a 3-fold dilution dose response of TMA, starting at 3000 μM, in the presence of our five candidate antagonists. […] It was difficult to determine if the five antagonists were competitive or non-competitive inhibitors using the very high IC80 concentrations of the antagonists.
In another experiment, we evaluated dose responses of TMA in the presence of the antagonist at their IC10, IC30 and IC50 concentrations.

TAAR5 [2] = biological target: T1, TAAR5; conditions: cited from earlier work
TAAR5 [3] = biological target: T1, TAAR5; experiment: Antagonist screen of odor library on TAAR5 with agonist TMA (Dual-Glo luciferase assay, Hana3A cells); format: cell-based; design: TAAR open reading frames were amplified from pooled human genomic DNA using Phusion polymerase and subcloned into a pCI expression vector; Rho tag (first 20 residues of human rhodopsin); expressed in transfected cells; host or cells: Hana3A cells; conditions: inhibition of TMA/TAAR5 response; test odor at 30 μM; TMA at EC80; read-out: Percent Inhibition
Description: as §1, with “The sequences of the cloned receptors were verified by sequencing (3730xl Sequencer, ABI Biosystems). We used the Dual-Glo™ Luciferase Assay System (Promega) to measure receptor responses as previously described in Trimmer, C. et al 2014 High-throughput Analysis of Mammalian Olfactory Receptors: Measurement of Receptor Activation via Luciferase Activity. Journal of Visualized Experiments, (88). doi:10.3791/51640.” left out
We completed an antagonist screen of a proprietary library of odors, including the 52 odorous compounds identified in FIG. 4 at a concentration of 30 μM.

[4] = system: human perception of TMA odor (mixture suppression); experiment: Split-nostril experiment, physical vs dichorhinic mixtures with TMA; format: in vivo; conditions: human subjects, TMA with probe odorant
Text: Mixture suppression has both a central and peripheral component (Laing, D., & Willcox, M. (1987). An investigation of the mechanisms of odor suppression using physical and dichorhinic mixtures. Behavioural Brain Research, 26(2-3), 79-87. http://doi.org/10.1016/0166-4328(87)90157-4). […] To test this we carried out split-nostril experiments using stimuli in glass jars. We compared TMA-alone, TMA mixed with the probe odorant in the same nostril (physical mixture), and TMA mixed with the probe odorant in different nostrils (dichorhinic mixture) (FIG. 7). […] Subjects were instructed to make intensity judgements during inhalation to avoid retronasal contamination across nostrils. This allowed us to separate central and peripheral components of the mixture suppression.

[5] = system: human perception of TMA odor ("fishy"); experiment: Human perceptual ratings of fishiness of TMA with antagonist or control odor (air-dilution olfactometer); format: in vivo; conditions: human subjects, TMA 3 mM, 1 mM, 0.33 mM, odors intensity-balanced to 1 mM TMA
Description: We evaluated the efficacy of the in vitro antagonists on human perception. We asked 10 (FIG. 5A) or 29 (FIG. 5B) subjects to rate how “fishy” and how “pleasant” an odor was. The odors were delivered to the subject using an air-dilution olfactometer (Lundström, J. N., et al., 2010 International Journal of Psychophysiology, 78(2), 179-189; doi:10.1016/j.ijpsycho.2010.07.007) and each trial consisted of one concentration of trimethylamine (either 3 mM, 1 mM, 0.33 mM, or a water blank) combined with either an antagonist or a solvent blank. Subjects used a general labeled magnitude scale to rate how “fishy” the odor smelled and a scale from −10 to +10 to rate the pleasantness.
The antagonists and control odors were intensity-balanced to match the 1 mM concentration of TMA. Trans-2-nonen-1-ol was diluted in Diethyl phthalate (DEP); TMA was diluted in water with NaOH added; Linalool was diluted in DEP. In all trials subjects received air from jars containing water and DEP so that solvent presence could not be used as a cue to the presence of the test odor.

Row | inhibition at 30 µM (TAAR5 [3]) [%] | IC50 (TAAR5 [1]; vs TMA, highest of the three concentrations in FIG. 2, read-out: IC50 concentration of antagonist) [µM] | IC10 concentration of antagonist (TAAR5 [1]; vs TMA, lowest of the three concentrations in FIG. 2) [µM] | IC30 concentration of antagonist (TAAR5 [1]; vs TMA, middle of the three concentrations in FIG. 2) [µM] | Structure (SMILES) | EC80 of agonist on TAAR5 (TAAR5 [1]) [µM] | activation of human TAAR5 (TAAR5 [2]) | peripheral component of mixture suppression [4] | effect on perceived fishy rating of TMA ([5]; listed as Trans-2-nonen-1-ol) | effect on perceived fishy rating of TMA ([5]; listed as trans-2-nonen-1-ol)
1 | – | – | – | – | CN(C)C [TMA, trimethylamine, reference compound] | 500 | activated in a concentration-dependent manner | – | – | –
2 | 89.3 | 703 | 100 | 316.22 | CCCCCC/C=C/CO [Trans-2-Nonen-1-ol] | – | – | larger peripheral component of mixture suppression than the control odorant linalool | significantly decreased the perceived fishy rating | decreases fishy intensity

Reference: US20180021467A1, “METHOD OF BLOCKING PERCEPTION OF MALODOR” (Monell Chemical Senses Center, priority 2015, published 2018)
